In US12458052B2, “Human milk oligosaccharides for use in enhancing executive function” (Glycom A/S, priority 2019, dated 2025):

Tested on: genes related to myelination; myelination and myelin sheath pathway
Assay: gene expression and KEGG pathway analysis of brain samples, cross-fostering to St6Gal1 KO dams
Format: in vivo, mice
Details: presence in maternal milk, especially during early life
Text: Adult wild-type (WT) B6.129 and heterozygous (HZ) B6.129-St6gal1^tm2Jxm breeding pairs (four males and four females and three males and four females, respectively) were purchased from a commercial breeder (The Jackson Laboratory). Upon arrival, same-sex mice were housed in same-sex groups of 2-3 in type-1 polycarbonate cages (33.0×13.0×14.0 cm) equipped with sawdust bedding, an enrichment bag (Mucedola, Settimo Milanese, Italy), metal top and ad libitum water and food pellets (Mucedola, Settimo Milanese, Italy). Mice were maintained on a reversed 12-h-light-dark cycle (light on at 7:00 PM) in an air-conditioned room (temperature 21±1° C. and relative humidity 60±10%). Two weeks after arrival, breeding triads (one male, two females) were formed. After two weeks of mating, male mice were removed and females were housed individually in standard type-1 cages. Females were checked daily for delivery and the day in which they gave birth was designated as postnatal day (PND) 0. […]
Quantification is performed using Quant It Ribogreen assay (Life Technologies) QC assessment is performed using Standard sensitivity RNA kit on Fragment Analyzer 96 (Agilent). […]
Library generation starts with oligodT priming containing the Illumina-specific Read 2 linker sequence. […] The random primer contains the Illumina-specific Read 1 linker sequence. […]

CC(=O)N[C@H]1[C@H]([C@H](O)[C@H](O)CO)O[C@@](OC[C@H]2O[C@@H](O[C@H]3[C@H](O)[C@@H](O)[C@H](O)O[C@@H]3CO)[C@H](O)[C@@H](O)[C@H]2O)(C(=O)O)C[C@@H]1O [6′-SL, 6′-sialyllactose]
optimal myelination of the prefrontal cortex: necessary
